Legend:
Human Calpain 1/NS1 = biological target: T1, Human Calpain 1/NS1 (Homo sapiens, UniProt P07384); test: Biochemical inhibition of calpain 1, continuous fluorescence (FRET substrate) assay; details: mean, read-out: Human Calpain 1/NS1 IC50 (nM)_MEAN
T1 sequence (P07384 1-714): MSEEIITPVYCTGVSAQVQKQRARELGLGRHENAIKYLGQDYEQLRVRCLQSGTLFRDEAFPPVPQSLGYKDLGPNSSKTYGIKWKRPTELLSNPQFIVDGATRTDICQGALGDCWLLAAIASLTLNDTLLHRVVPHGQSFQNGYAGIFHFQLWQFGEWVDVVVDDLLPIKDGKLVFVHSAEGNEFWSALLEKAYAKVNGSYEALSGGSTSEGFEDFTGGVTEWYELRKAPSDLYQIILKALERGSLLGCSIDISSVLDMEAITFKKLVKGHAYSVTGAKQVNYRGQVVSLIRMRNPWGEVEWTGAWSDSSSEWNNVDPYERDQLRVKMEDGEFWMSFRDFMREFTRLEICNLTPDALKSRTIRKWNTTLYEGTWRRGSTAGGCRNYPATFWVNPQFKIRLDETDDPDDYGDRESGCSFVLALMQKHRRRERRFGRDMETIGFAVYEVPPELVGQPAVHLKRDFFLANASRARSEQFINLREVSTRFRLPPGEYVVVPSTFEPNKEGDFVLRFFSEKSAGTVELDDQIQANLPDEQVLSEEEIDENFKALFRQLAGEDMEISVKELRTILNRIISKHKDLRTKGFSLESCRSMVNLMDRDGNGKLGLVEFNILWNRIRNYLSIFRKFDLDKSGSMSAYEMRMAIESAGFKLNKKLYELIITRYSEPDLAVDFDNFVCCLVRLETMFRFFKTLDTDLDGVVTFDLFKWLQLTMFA
T1 sequence (P04632 1-268 partner): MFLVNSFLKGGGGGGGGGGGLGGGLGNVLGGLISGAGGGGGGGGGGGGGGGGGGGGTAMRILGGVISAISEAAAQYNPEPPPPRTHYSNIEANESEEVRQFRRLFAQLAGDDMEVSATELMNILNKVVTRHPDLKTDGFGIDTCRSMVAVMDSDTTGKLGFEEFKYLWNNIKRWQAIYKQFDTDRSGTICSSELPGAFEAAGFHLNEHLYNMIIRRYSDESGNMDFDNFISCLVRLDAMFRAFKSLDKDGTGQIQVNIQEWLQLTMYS
Protocol: (§1) Calpain 1, 2, and 9 activity and inhibition thereof are assessed by means of a continuous fluorescence assay. The SensoLyte 520 Calpain substrate (Anaspec Inc) is optimized for detecting calpain activity. This substrate contains a novel internally quenched 5-FAM/QXL™ 520 FRET pair. Calpains 1, 2, and 9 cleave the FRET substrate into two separate fragments resulting in an increase of 5-FAM fluorescence that is proportional to calpain activity.
(§2) Assays are typically setup in black 384-well plates using automated liquid handling as follows. Calpain assay base buffer typically contains 50 mM Tris, pH˜7.5, 100 mM NaCl and 1 mM DTT. Inhibitors are serially diluted in DMSO and used to setup 2× mixtures with calpains in the aforementioned buffer. After incubation at ambient temperature (25C), the reaction is initiated by adding a 2× mix of the fluorescent peptide substrate and CaCl2) (required for in-situ calpain activation) in the same buffer. Reaction progress curve data are typically collected for 10 min using excitation/emission wavelengths of 490 nm/520 nm on SpectraMax i3× or the FLIPR-Tetra plate readers (Molecular Devices Inc). Reaction rates were calculated from progress curve slopes typically over 1-5 min. Dose response curves (rate vs. log inhibitor concentration) were typically fit to a 4-parameter logistic function to extract IC50 values.

Human Calpain 2/NS1 = biological target: T2, Human Calpain 2/NS1 (Homo sapiens, UniProt P17655); test: Biochemical inhibition of calpain 2, continuous fluorescence (FRET substrate) assay; details: mean, read-out: Human Calpain 2/NS1 IC50 (nM)_MEAN
T2 sequence (P17655 1-700): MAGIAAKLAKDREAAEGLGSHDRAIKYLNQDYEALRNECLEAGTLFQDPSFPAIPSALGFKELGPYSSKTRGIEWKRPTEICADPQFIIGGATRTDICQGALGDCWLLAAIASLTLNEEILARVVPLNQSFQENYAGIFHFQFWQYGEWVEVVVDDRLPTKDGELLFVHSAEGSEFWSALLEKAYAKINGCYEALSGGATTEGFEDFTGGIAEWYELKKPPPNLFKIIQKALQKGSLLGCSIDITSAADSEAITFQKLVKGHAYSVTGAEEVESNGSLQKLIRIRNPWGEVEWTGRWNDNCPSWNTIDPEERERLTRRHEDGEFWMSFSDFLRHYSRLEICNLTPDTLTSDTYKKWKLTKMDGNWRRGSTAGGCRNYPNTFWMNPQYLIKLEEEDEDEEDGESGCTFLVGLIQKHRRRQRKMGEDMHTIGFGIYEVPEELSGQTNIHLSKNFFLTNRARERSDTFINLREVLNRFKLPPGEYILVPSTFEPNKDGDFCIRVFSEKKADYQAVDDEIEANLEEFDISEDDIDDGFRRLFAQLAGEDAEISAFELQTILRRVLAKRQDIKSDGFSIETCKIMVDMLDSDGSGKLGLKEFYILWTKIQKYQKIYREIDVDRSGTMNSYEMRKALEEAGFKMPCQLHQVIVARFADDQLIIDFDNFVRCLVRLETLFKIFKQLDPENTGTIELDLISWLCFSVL
T2 sequence (P04632 1-268 partner): T1 sequence (P04632 1-268 partner)
Protocol: as §1, §2

Human Calpain 9/NS1 = biological target: T3, Human Calpain 9/NS1 (Homo sapiens, UniProt O14815); test: Biochemical inhibition of calpain 9, continuous fluorescence (FRET substrate) assay; details: mean, read-out: Human Calpain 9/NS1 IC50 (nM)_MEAN
T3 sequence (O14815 1-690): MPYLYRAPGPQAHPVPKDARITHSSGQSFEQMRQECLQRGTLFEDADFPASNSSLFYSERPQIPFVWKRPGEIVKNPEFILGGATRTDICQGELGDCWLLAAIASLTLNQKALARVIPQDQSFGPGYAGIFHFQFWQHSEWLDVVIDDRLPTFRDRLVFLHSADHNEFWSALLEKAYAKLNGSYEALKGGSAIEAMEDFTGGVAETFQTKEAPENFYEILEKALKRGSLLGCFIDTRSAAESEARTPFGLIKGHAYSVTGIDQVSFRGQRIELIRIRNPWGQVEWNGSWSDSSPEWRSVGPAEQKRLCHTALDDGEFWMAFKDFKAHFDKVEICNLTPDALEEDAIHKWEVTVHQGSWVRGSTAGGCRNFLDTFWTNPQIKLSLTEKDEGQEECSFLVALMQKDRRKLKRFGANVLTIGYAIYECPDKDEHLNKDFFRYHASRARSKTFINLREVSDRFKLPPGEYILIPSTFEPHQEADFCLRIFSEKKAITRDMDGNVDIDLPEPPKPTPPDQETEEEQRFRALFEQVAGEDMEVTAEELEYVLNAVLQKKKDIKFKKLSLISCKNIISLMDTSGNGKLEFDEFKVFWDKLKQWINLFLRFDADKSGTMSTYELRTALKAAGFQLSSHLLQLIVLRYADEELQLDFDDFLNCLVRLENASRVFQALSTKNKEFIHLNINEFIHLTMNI
T3 sequence (P04632 1-268 partner): T1 sequence (P04632 1-268 partner)
Protocol: as §1, §2

Row | Compound | IC50 (Human Calpain 1/NS1) [nM] | IC50 (Human Calpain 2/NS1) [nM] | IC50 (Human Calpain 9/NS1) [nM]
1 | O=C(NC1CC1)C(=O)[C@@H]1Cc2ccc(cc2)OC/C=C/COc2cccc(c2)-c2ccn(n2)-c2ncccc2C(=O)N1 [Compound 70, N-cyclopropyl-2-oxo-2-((2^2E,6S,11E)-4-oxo-2^1H-9,14-dioxa-5-aza-3(2,3)-pyridina-2(3,1)-pyrazola-1(1,3),8(1,4)-dibenzenacyclotetradecaphan-11-en-6-yl)acetamide] | < 3000 | < 3000 | < 3000
2 | O=C[C@@H]1CC=CCCOc2cccc(c2)-c2ccccc2C(=O)N1 [Compound 29, (S)-11-Oxo-3-oxa-10-aza-1(1,2),2(1,3)-dibenzenacycloundecaphan-6-ene-9-carbaldehyde] | < 3000 | < 3000 | < 3000
3 | O=C[C@@H]1CCCCCOc2ccnc(c2)-c2ccccc2C(=O)N1 [Compound 149, (S)-3-oxo-11-oxa-4-aza-1(2,4)-pyridina-2(1,2)-benzenacycloundecaphane-5-carbaldehyde] | < 3000 | < 3000 | < 3000
4 | Cc1cccc(C)c1NC(=O)C(=O)[C@@H]1C/C=C\COCCOCc2ccccc2C(=O)N1 [Compound 61, (S,Z)—N-(2,6-dimethylphenyl)-2-oxo-2-(12-oxo-1,3,4,6,9,10,11,12-octahydrobenzo[f][1,4]dioxa[9]azacyclotetradecin-10-yl)acetamide] | > 10000 | > 10000 | > 10000
5 | O=C[C@@H]1Cc2ccc(cc2)OCCCCOc2cccc(c2)-c2ccn(n2)-c2ncccc2C(=O)N1 [Compound 46, (6S,E)-4-oxo-2^1H-9,14-dioxa-5-aza-3(2,3)-pyridina-2(3,1)-pyrazola-1(1,3),8(1,4)-dibenzenacyclotetradecaphane-6-carbaldehyde] | < 3000 | < 3000 | < 3000
6 | Cn1cc2c(n1)-c1cccc(c1)OCCCCC[C@@H](C(=O)C(N)=O)NC2=O [Compound 142, (S)-2-(1′-methyl-11-oxo-1^1H-3-oxa-10-aza-1(3,4)-pyrazola-2(1,3)-benzenacycloundecaphane-9-yl)-2-oxoacetamide] | > 10000 | > 10000 | < 3000
7 | O=C[C@@H]1CCCCCCOCc2ccccc2C(=O)N1 [Compound 42, (S)-11-Oxo-1,3,4,5,6,7,8,9,10,11-decahydrobenzo[c][1]oxa[6]azacyclotridecine-9-carbaldehyde] | > 10000 | < 3000 | < 3000

More lines, now with the values ahead:

Row | IC50 (Human Calpain 1/NS1) [nM] | IC50 (Human Calpain 2/NS1) [nM] | IC50 (Human Calpain 9/NS1) [nM] | Compound
8 | > 10000 | > 10000 | 3000 to 10000 | O=C[C@@H]1C/C=C/COCCOCc2ccccc2C(=O)N1 [Compound 2, (S,E)-12-Oxo-1,3,4,6,9,10,11,12-octahydrobenzo[f][1,4]dioxa[9]azacyclotetradecine-10-carbaldehyde]
9 | > 10000 | 3000 to 10000 | < 3000 | O=C(NCc1ccncc1)C(=O)C1CCCCOCCOCc2ccccc2C(=O)N1 (stereo not drawn) [Compound 117, 2-Oxo-2-(12-oxo-1,3,4,6,7,8,9,10,11,12-decahydrobenzo[f][1,4]dioxa[9]aza-cyclotetradecin-10-yl)-N-(pyridin-4-ylmethyl)acetamide]
10 | < 3000 | < 3000 | < 3000 | NC(=O)C(=O)[C@@H]1CCCCCOc2cccc(c2)-c2n[nH]cc2C(=O)N1 [Compound 140, (S)-2-oxo-2-(11-oxo-1H-3-oxa-10-aza-1(3,4)-pyrazola-2(1,3)-benzena-cycloundecaphane-9-yl)acetamide]
11 | > 10000 | > 10000 | < 3000 | O=C(NCc1ccc(OC(F)(F)F)cc1)C(=O)C1CCCCOCCOCc2ccccc2C(=O)N1 (stereo not drawn) [Compound 87, 2-Oxo-2-(12-oxo-1,3,4,6,7,8,9,10,11,12-decahydrobenzo[f][1,4]dioxa[9]aza-cyclotetradecin-10-yl)-N-(4-(trifluoromethoxy)benzyl)acetamide]

Source: patent publication US11292801B2, “Calpain modulators and therapeutic uses thereof” (Blade Therapeutics, Inc., priority 2016, dated 2022)
